# Test results: patent publication US11629201B2, “PSMA-binding agents and uses thereof” (ITM Isotope Technologies Munich SE, priority 2017, dated 2023)
# Assay: n-Octanol/PBS distribution coefficient (log D)
# Format: physicochemical
# Conditions: n-octanol/PBS; radiolabeled ligand, 50 MBq/nmol, PBS pH 7.4
# Method: The radioligand (0.5 MBq; 10 pmol, 25 μL) was then added to a reagent tube containing 1475 μL of PBS pH 7.4 and 1500 μL of n-octanol. The vials were vortexed vigorously followed by a centrifugation step for phase separation.
# Determination of n-Octanol/PBS Distribution Coefficients (Log D Values). The distribution coefficients (log D values) of the ^64Cu-labeled radioligands (50 MBq/nmol) were determined by a shake-flask method using liquid-liquid extraction followed by phase separation as previously reported. Three experiments were performed with five replicates for each radioligand. Statistical significance of the data (p<0.05) was evaluated using an unpaired t-test (GraphPad Prism software, version 7).
# Determination of n-Octanol/PBS Distribution Coefficients (Log D Values). […] A sample of the radioligands was mixed with phosphate-buffered saline (PBS) and n-octanol followed by vigorous vortexing. […] Three experiments were performed with five replicates for each compound.
row,Structure (SMILES),logD
1,"O=C(O)CC[C@H](NC(=O)N[C@@H](CCCCNC(=O)[C@H](Cc1ccc2ccccc2c1)NC(=O)[C@H]1CC[C@H](CNC(=O)CN2CCN(CC(=O)O)CCN(CC(=O)O)CCN(CC(=O)O)CC2)CC1)C(=O)O)C(=O)O [PSMA-617, reference compound]",-4.4 ± 0.15
2,O=C(O)CC[C@H](NC(=O)N[C@@H](CCCCNC(=O)[C@H](Cc1ccc2ccccc2c1)NC(=O)[C@H]1CC[C@H](CNC(=O)[C@@H](CCCCNC(=O)CN2CCN(CC(=O)O)CCN(CC(=O)O)CCN(CC(=O)O)CC2)NC(=O)CCCc2ccc(I)cc2)CC1)C(=O)O)C(=O)O [PSMA-ALB-02],-2.8 ± 0.09
3,O=C(O)CCC(NC(=O)NC(CCCCNC(=O)C(Cc1ccc2ccccc2c1)NC(=O)C1CCC(CNC(=O)C(CCCCNC(=O)CN2CCN(CC(=O)O)CCN(CC(=O)O)CCN(CC(=O)O)CC2)NC(=O)CC(NC(=O)CC(NC(=O)CCCc2ccc(I)cc2)C(=O)O)C(=O)O)CC1)C(=O)O)C(=O)O (centres unmarked) [PSMA-ALB-05],-3.5 ± 0.08
4,O=C(O)CCC(NC(=O)NC(CCCCNC(=O)C(Cc1ccc2ccccc2c1)NC(=O)C1CCC(CNC(=O)C(CCCCNC(=O)CN2CCN(CC(=O)O)CCN(CC(=O)O)CCN(CC(=O)O)CC2)NC(=O)CC(NC(=O)CC(NC(=O)CC(NC(=O)CCCc2ccc(I)cc2)C(=O)O)C(=O)O)C(=O)O)CC1)C(=O)O)C(=O)O (centres unmarked) [PSMA-ALB-07],-3.9 ± 0.25
5,"Cc1ccc(CCCC(=O)NCCCCC(NC(=O)CN2CCN(CC(=O)O)CCN(CC(=O)O)CCN(CC(=O)O)CC2)C(=O)NCC2CCC(C(=O)NC(Cc3ccc4ccccc4c3)C(=O)NCCCCC(NC(=O)NC(CCC(=O)O)C(=O)O)C(=O)O)CC2)cc1 (centres unmarked) [^64Cu-PSMA-ALB-06, metal not drawn]",-3.1 ± 0.1
